Results on 27 compounds are retold here after US20240150368A1, “ULK INHIBITORS AND METHODS OF USE THEREOF” (Deciphera Pharmaceuticals, LLC, priority 2022, published 2024).

Some results are limits rather than exact numbers.

The target in one experiment is T1, LRRK2 kinase (Homo sapiens, UniProt Q5S007).
T1 construct: (residues 970-2528; ID NO; 3); purchased Thermo Fisher
The experiment in a line: Biochemical assay for LRRK2 (coupled pyruvate kinase/lactate dehydrogenase assay). Conditions: 26.4 nM LRRK2, 1 mM ATP; read-out: LRRK2 (inhibition of LRRK2 kinase activity, IC50).

Experiment [1] relates to ULK kinase substrate ATG13 (pS318-ATG13) in MiaPaCa-2 cells. Put plainly: pATG13 levels of mutant KRas MiaPaCa-2 cells after treatment with ULK inhibitors in combination with trametinib (ELISA). The class given is cell-based, human. In outline: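 MiaPaCa-2 cells grown overnight, then dosed with test compound titration plus trametinib (final 250 nM) or DMSO, overnight at 37° C. Lysate pS318-ATG13 measured by sandwich ELISA (total ATG13 capture, biotinylated pS318 detection, HRP/TMB, A450 minus A540); % phosphorylation vs control wells fitted to IC50.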
(ELISA stands for enzyme-linked immunosorbent assay.)

T1 sequence (Q5S007 with tags, fused parts or gaps): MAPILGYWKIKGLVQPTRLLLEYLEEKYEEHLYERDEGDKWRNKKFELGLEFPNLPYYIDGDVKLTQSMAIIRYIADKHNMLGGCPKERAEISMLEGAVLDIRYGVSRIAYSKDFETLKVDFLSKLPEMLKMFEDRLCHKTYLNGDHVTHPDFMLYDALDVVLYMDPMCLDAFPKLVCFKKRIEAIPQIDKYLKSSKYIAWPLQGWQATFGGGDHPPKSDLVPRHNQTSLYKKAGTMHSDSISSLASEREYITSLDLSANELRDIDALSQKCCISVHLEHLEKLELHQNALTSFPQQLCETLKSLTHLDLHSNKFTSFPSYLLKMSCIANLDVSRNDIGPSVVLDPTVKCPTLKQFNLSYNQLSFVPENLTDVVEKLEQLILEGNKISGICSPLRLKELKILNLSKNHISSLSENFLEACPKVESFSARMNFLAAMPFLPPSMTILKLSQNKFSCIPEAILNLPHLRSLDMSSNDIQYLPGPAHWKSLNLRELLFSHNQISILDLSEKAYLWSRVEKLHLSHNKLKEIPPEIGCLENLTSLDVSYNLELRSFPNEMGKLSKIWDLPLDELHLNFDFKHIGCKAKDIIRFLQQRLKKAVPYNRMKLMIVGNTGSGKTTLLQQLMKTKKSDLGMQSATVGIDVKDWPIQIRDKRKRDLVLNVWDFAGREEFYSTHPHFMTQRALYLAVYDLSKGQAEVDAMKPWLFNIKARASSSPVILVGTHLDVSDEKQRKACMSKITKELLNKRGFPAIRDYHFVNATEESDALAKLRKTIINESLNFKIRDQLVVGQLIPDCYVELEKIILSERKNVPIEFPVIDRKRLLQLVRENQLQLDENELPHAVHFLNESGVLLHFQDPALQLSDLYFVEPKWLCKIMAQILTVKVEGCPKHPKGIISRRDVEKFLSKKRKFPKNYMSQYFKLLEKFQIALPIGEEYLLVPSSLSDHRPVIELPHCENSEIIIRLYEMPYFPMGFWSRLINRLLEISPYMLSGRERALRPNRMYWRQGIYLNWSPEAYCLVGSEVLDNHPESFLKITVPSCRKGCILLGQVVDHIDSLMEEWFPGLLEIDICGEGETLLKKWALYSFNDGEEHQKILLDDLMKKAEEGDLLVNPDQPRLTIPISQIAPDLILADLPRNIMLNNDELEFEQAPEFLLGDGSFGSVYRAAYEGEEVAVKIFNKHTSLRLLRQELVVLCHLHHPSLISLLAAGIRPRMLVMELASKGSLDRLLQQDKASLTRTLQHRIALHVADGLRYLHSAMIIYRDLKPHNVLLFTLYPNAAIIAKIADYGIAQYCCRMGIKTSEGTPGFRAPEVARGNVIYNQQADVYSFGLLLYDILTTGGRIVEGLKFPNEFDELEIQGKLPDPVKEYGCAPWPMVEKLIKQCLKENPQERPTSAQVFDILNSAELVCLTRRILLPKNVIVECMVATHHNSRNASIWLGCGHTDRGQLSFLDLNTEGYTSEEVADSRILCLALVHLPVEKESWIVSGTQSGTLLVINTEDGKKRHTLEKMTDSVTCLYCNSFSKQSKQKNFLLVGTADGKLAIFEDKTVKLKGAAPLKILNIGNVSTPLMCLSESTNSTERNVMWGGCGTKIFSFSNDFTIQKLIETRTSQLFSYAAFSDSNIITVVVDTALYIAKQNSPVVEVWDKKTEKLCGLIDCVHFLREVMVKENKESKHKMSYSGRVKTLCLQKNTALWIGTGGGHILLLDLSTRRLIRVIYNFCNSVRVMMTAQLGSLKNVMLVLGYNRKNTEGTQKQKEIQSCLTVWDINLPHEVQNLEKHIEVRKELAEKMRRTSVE

One may read the IC50 as the concentration at which inhibition is half-maximal. In the case of `CC/C(Nc1cnn(C2CCN(C(C)C)CC2)c1)=C1/C(=O)Nc2ccc(C(=O)NC[C@H]3CCCO3)cc21` [Example 1, (R,Z)-3-(1-((1-(1-isopropylpiperidin-4-yl)-1H-pyrazol-4-yl)amino)propylidene)-2-oxo-N-((tetrahydrofuran-2-yl)methyl)indoline-5-carboxamide], the figures for the IC50 (on LRRK2 kinase; in experiment [1]) were 0.1 to 0.3 µM and ≤ 0.1 µM, respectively.
Regarding `CC/C(Nc1ccc(N2C[C@H]3CN(C)C[C@H]3C2)cc1)=C1/C(=O)Nc2ccc(C(=O)NCC(C)C)cc21` [Example 63], in experiment [1], the IC50 was ≤ 0.1 µM.
Turning to `CC/C(Nc1ccc(N2C[C@H]3CN(C)C[C@H]3C2)cc1)=C1/C(=O)Nc2ccc(C(=O)NC[C@H]3CCCO3)cc21` [Example 64], the IC50 in experiment [1] is ≤ 0.1 µM.
In the case of `CC/C(Nc1ccc(N2CC3(CN(C)C3)C2)cc1)=C1/C(=O)Nc2ccc(C(=O)NCC(C)C)cc21` [Example 65], the IC50 in experiment [1] was ≤ 0.1 µM.
Turning to `CC/C(Nc1ccc(N2CC3(CN(C)C3)C2)cc1)=C1/C(=O)Nc2ccc(C(=O)NC[C@H]3CCCO3)cc21` [Example 66], the IC50 in experiment [1] was ≤ 0.1 µM.
`CC/C(Nc1ccc(N2CC3CC(C2)N3C)cc1)=C1/C(=O)Nc2ccc(C(=O)NCC(C)C)cc21` [Example 67]: the IC50 in experiment [1] was ≤ 0.1 µM.
In the case of `CC/C(Nc1ccc(N2CC3CC(C2)N3C)cc1)=C1/C(=O)Nc2ccc(C(=O)NC[C@H]3CCCO3)cc21` [Example 68], the IC50 in experiment [1] is ≤ 0.1 µM.
Consider `CC/C(Nc1ccc(N2CC3CC2CN3C)cc1)=C1/C(=O)Nc2ccc(C(=O)NCC(C)C)cc21` (centres unmarked) [Example 69], for which the IC50 in experiment [1] is ≤ 0.1 µM.
Turning to `CC/C(Nc1ccc(N2CC3CC2CN3C)cc1)=C1/C(=O)Nc2ccc(C(=O)NC[C@H]3CCCO3)cc21` (some centres unmarked) [Example 70], the IC50 in experiment [1] is ≤ 0.1 µM.
With `CC/C(Nc1ccc(N2CC3CC2CN3C)cc1)=C1/C(=O)Nc2ccc(C(=O)NCC(F)(F)F)cc21` (centres unmarked) [Example 71], in experiment [1], the IC50 was ≤ 0.1 µM.
On the same count and under the same terms, the figure for `CC/C(Nc1ccc(N2CCN(C)CC2)nc1)=C1/C(=O)Nc2ccc(C(=O)NCC(F)(F)F)cc21` [Example 74] is ≤ 0.1 µM.
As to `CC/C(Nc1ccc(N2CCN(C)CC2)cn1)=C1/C(=O)Nc2ccc(C(=O)NCC(F)(F)F)cc21` [Example 75], the IC50 (on LRRK2 kinase; in experiment [1]) was ≤ 0.1 µM in each case.
For `CC/C(Nc1cnn(C)c1)=C1/C(=O)Nc2ccc(C(=O)NCC(F)(F)F)cc21` [Example 77], the half-inhibitory concentration (IC50) (at LRRK2 kinase; in experiment [1]) was ≤ 0.1 µM in each case.
As for `CC/C(Nc1ccc(-c2nc(C)no2)cc1)=C1/C(=O)Nc2ccc(C(=O)NCC(F)(F)F)cc21` [Example 78], the figures for the half-inhibitory concentration (IC50) (at LRRK2 kinase; in experiment [1]) were ≤ 0.1 µM and 0.1 to 0.3 µM, respectively.
`CC/C(Nc1ccc(-c2cn(C)nn2)cc1)=C1/C(=O)Nc2ccc(C(=O)NCC(F)(F)F)cc21` [Example 79]: the IC50 in experiment [1] was ≤ 0.1 µM.
Take `CC/C(Nc1cnn(C2CCN(C(C)C)CC2)c1)=C1/C(=O)Nc2ccc(C(=O)NC[C@H]3CC(F)(F)CO3)cc21` [Example 80]: the IC50 in experiment [1] is ≤ 0.1 µM.
Take `CC/C(Nc1cnn(C2CCN(C(C)C)CC2)c1)=C1/C(=O)Nc2ccc(C(=O)NCCOC(F)(F)F)cc21` [Example 82]: in experiment [1], the IC50 is ≤ 0.1 µM.
The same measure, in the same setting: the figure for `CC/C(Nc1cnn(C2CCN(C(C)C)CC2)c1)=C1/C(=O)Nc2ccc(C(=O)NC[C@H]3CCCCO3)cc21` [Example 83] is ≤ 0.1 µM.
Consider `CC/C(Nc1cnn(C2CC3(C2)CN(C)C3)c1)=C1/C(=O)Nc2ccc(C(=O)NCC(F)(F)F)cc21` [Example 84], for which the IC50 (on LRRK2 kinase; in experiment [1]) was ≤ 0.1 µM each time.
For the compound `CC/C(Nc1ccc(N2CC3(COC3)C2)cc1)=C1/C(=O)Nc2ccc(C(=O)NCC(F)(F)F)cc21` [Example 85], the results for the IC50 (on LRRK2 kinase; in experiment [1]) were ≤ 0.1 µM and 0.1 to 0.3 µM, respectively.
Taken in the same sequence, the figures for `CC/C(Nc1cnn(C2CN(C)C2)c1)=C1/C(=O)Nc2ccc(C(=O)NCC(F)(F)F)cc21` [Example 86] were 0.1 to 0.3 µM and ≤ 0.1 µM.
On to `CC/C(Nc1cnn(C2CN(C)C2)c1)=C1/C(=O)Nc2ccc(C(=O)NCC(C)C)cc21` [Example 87], for which, in experiment [1], the IC50 is ≤ 0.1 µM.
With `CC/C(Nc1cnn(C2CN(C3CCC3)C2)c1)=C1/C(=O)Nc2ccc(C(=O)NC[C@H]3CCCO3)cc21` [Example 88], in experiment [1], the IC50 was ≤ 0.1 µM.
As for `CC/C(Nc1cnn(C2CN(C)C2)c1)=C1/C(=O)Nc2ccc(C(=O)NCCOC)cc21` [Example 89], the 50% inhibitory concentration (IC50) in experiment [1] fell in the range of 0.1 to 0.3 µM.
Take `CC/C(Nc1cnn(C2CN(CC)C2)c1)=C1/C(=O)Nc2ccc(C(=O)NC[C@H]3CCCO3)cc21` [Example 90]: in experiment [1], the IC50 is ≤ 0.1 µM.
For `CC/C(Nc1cnn(C2CN(C(C)C)C2)c1)=C1/C(=O)Nc2ccc(C(=O)NC[C@H]3CCCO3)cc21` [Example 91], the IC50 in experiment [1] was ≤ 0.1 µM.
Regarding `CC/C(Nc1ccc(N2CCN(C(C)C)CC2)cn1)=C1/C(=O)Nc2cc(F)c(C(=O)NCC(F)(F)F)cc21` [Example 92], the IC50 is 0.3 to 0.6 µM on LRRK2 kinase and ≤ 0.1 µM in experiment [1].
